Read-outs that look alike come from different tables or passages of the source. Where no end group is shown, it is not given here.
Columns and labels:
Erbin-PDZ [1] = settings: ERBB2 C-terminal tail of 9 residues; cited from earlier work
Excerpt: Again, no class II or III peptides were able to bind PSD95-PDZ3 either. […] Instead, the striking resu ...

PSD95-PDZ2 [2] = molecular target: T1, PSD95-PDZ2 (Homo sapiens, UniProt P78352); assay: ITC titration of PSD95-PDZ2 with peptides; format: binding; design: key to interaction or not with PSD95 PDZ2: The tick (✓) and the cross (✕) signs mean whether there is interaction or not, respectively, as demonstrated in this study; The tick (✓) and the cross (✕) signs mean whether there is interaction or not, respectively, as demonstrated in this study; settings: for Kd: ITC, 25 °C, 50 mM potassium phosphate pH 7.5, protein 70 μM in cell, peptide 900 μM, single-site model, n 0.8 to 1.1; for interaction or not with PSD95 PDZ2: Figure 1 summary, ITC, and DSC where ITC showed no binding
T1 construct: PSD95-PDZ2 (residues 155–249, according to PSD95 numbering); made in house; host or cells: Escherichia coli BL21-DE3
T1 sequence (P78352 155-249): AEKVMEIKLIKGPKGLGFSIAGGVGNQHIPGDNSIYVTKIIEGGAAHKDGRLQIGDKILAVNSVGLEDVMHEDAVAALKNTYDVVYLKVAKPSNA
Experimental: (§1) The DNA encoding the sequences of PSD95-PDZ2 (residues 155–249, according to PSD95 numbering), PSD95-PDZ3 (residues 302–415, according to PSD95 numbering), nNOS-PDZ (residues 1–127, in nNOS numbering) and Erbin-PDZ (given generously by Prof. Sachdev Sidhu, University of Toronto, Toronto, ON, Canada), were sub-cloned into pBAT4 vector (EMBL Core Purification Facility, Heidelberg, Germany) and expressed in Escherichia coli BL21-DE3 cells. Protein purification was carried out as previously described. Briefly, cultures were over-expressed overnight and centrifuged. After cell lysis with a French press, the lysates were centrifuged and the pH of the supernatant was lowered down to a pH of 3 with diluted HCl. Upon centrifugation, ammonium sulfate was added to the samples, which were then injected into an AKTA FPLC for preparative size exclusion chromatography. Roughly 15 milligrams of protein per liter of LB culture were obtained and purity was determined by SDS-Page electrophoresis. MALDI-TOF spectrometry, performed at the Scientific Instrumentation Services (CIC) of the University of Granada (Granada, Spain), confirmed the molecular mass for each PDZ domain. Extinction coefficients, determined as described, were used to calculate sample concentration. Experimental samples were always prepared by extensive dialysis against 50 mM potassium phosphate buffer at a pH of 7.5 and 4 °C.
(§2) Calorimetric titrations of the PDZ domains with the peptides were undertaken at 25 °C on an ITC-200 titration microcalorimeter (Microcal Inc., Northampton, MA, USA), as previously described. Protein concentrations in the cell were routinely 70 μM and peptides solutions were prepared using the dialysis buffer to have a final concentration of 900 μM. Titrations were all made by injecting 2 μL volumes of ligand solution, with a final number of 19 injections per experiment. As a control and reference, independent experiments were carried out with only buffer in the calorimeter cell with the same ligand solutions to determine the corresponding heat dilution. The dilution isotherms were then subtracted from that obtained for protein titration. The binding stoichiometry, n, the dissociation constant, Kd and the corresponding enthalpy change, ΔH, were determined by fitting the resulting titration isotherm to a model considering a single ligand binding site using ORIGIN 7.0 (OriginLab Corporation, Northampton, MA, USA, 2002).
(§3) We performed ITC experiments at 25 °C between all the selected PDZ domains and peptides. For the sake of comparison, the experiments were all conducted in the same buffer conditions, 50 mM potassium phosphate and pH of 7.5, which presents the advantage of having an insignificant protonation heat, meaning that the experimentally determined enthalpy changes should just account for the net heat of reaction. A table summarizing all interactions is shown in Figure 1, whilst we have just included the successful experiments graphs, both in Figure 2 and in the SI (Figure S1).

PSD95-PDZ3 [3] = molecular target: T2, PSD95-PDZ3 (Homo sapiens, UniProt P78352); assay: ITC titration of PSD95-PDZ3 with peptides; format: binding; design: key to interaction or not with PSD95 PDZ3: The tick (✓) and the cross (✕) signs mean whether there is interaction or not, respectively, as demonstrated in this study; The tick (✓) and the cross (✕) signs mean whether there is interaction or not, respectively, as demonstrated in this study; settings: for Kd: ITC, 25 °C, 50 mM potassium phosphate pH 7.5, protein 70 μM in cell, peptide 900 μM, single-site model, n 0.8 to 1.1; for interaction or not with PSD95 PDZ3: Figure 1 summary, ITC, and DSC where ITC showed no binding
T2 construct: PSD95-PDZ3 (residues 302–415, according to PSD95 numbering); made in house; host or cells: Escherichia coli BL21-DE3
T2 sequence (P78352 302-415): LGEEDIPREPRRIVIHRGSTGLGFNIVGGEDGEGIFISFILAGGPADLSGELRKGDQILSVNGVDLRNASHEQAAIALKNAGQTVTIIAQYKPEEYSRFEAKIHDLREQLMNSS
Experimental: as §1, §2, §3

Erbin-PDZ [4] = molecular target: T3, Erbin-PDZ (Homo sapiens, UniProt Q96RT1); assay: ITC titration of Erbin-PDZ with peptides; format: binding; design: key to interaction or not with Erbin PDZ: The tick (✓) and the cross (✕) signs mean whether there is interaction or not, respectively, as demonstrated in this study; The tick (✓) and the cross (✕) signs mean whether there is interaction or not, respectively, as demonstrated in this study; settings: for Kd: 50 mM potassium phosphate pH 7.5, protein 70 μM in cell, peptide 900 μM, single-site model, n 0.8 to 1.1; for interaction or not with Erbin PDZ: Figure 1 summary, ITC, and DSC where ITC showed no binding
T3 construct: made in house; host or cells: Escherichia coli BL21-DE3
T3 sequence (Q96RT1 1321-1410 limits assumed): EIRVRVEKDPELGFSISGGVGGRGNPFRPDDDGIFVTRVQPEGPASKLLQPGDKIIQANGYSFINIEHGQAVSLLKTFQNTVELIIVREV
Experimental: as §1, §2, §3

nNOS-PDZ = assay: DSC of nNOS-PDZ with and without peptides (Tm displacement); format: binding, human; design: key to interaction or not with nNOS PDZ: The tick (✓) and the cross (✕) signs mean whether there is interaction or not, respectively, as demonstrated in this study; The tick (✓) and the cross (✕) signs mean whether there is interaction or not, respectively, as demonstrated in this study; settings: for ΔTm of nNOS-PDZ: DSC, PDZ:peptide 1:3, 50 mM potassium phosphate pH 7.5, nNOS-PDZ alone 55 °C; for interaction or not with nNOS PDZ: Figure 1 summary, no binding by ITC, interaction shown by DSC
Experimental: (§4) Experiments were carried out in a VP-DSC instrument from Microcal INC. as described elsewhere. The buffer conditions were the same as with ITC experiments, 50 mM buffer potassium phosphate at a pH of 7.5. For experiments including the peptides, the final concentration ratio was 1:3 (protein:peptide). Final data were obtained after treatment with ORIGIN 7.0 (OriginLab Corporation, Northampton, MA, USA, 2002).
(§5) The final ratio of PDZ:peptide was always 1:3. DSC is also a calorimetric technique but that allows finding a more subtle binding, weaker than that from ITC [33]. Undoubtedly, ITC presents greater advantages, since it gives an exhaustive characterization of the binding interaction, granting the whole thermodynamics of the system; nevertheless, if the interactions are out of the ITC range, usually when they are weak (Kd values in the mM range), it is not sensitive enough to detect binding. By contrast, DSC can detect weak binding by a displacement of the melting temperature (Tm) due to the stabilization that occurs upon binding. Essentially, when a ligand is bound to the protein, energy is needed to decouple the interacting pair before protein denaturalization. In this way, the Tm is increased and the ΔTm is proportional to the interaction energy.

PSD95-PDZ3 [5] = molecular target: T2, PSD95-PDZ3; settings: cited from earlier work
Excerpt: Unfortunately, the calorimetric traces for nNOS-PDZ are highly irreversible, which prevents an analysis that would potentially yield a Kd value. Instead, we can approximately estimate a Kd range based on previous cases in PDZ binding. We have taken as a reference two PDZ-peptide interactions. Firstly, the binding of PSD95-PDZ3 with the peptide KKETAV formerly described by us. We had previously performed both ITC and DSC with PSD95-PDZ3 and KKETAV. The concentrations ...

PSD95-PDZ2 [6] = molecular target: T1, PSD95-PDZ2; assay: DSC of PSD95-PDZ2 with and without peptides; format: binding; settings: PDZ:peptide 1:3, 50 mM potassium phosphate pH 7.5 (Figure S2)
Experimental: as §4, §5

Substance | Kd (PSD95-PDZ2 [2]) [µM] | Kd (Erbin-PDZ [4]; ITC, 25 °C) [µM] | interaction or not with PSD95 PDZ2 (PSD95-PDZ2 [2]) | interaction or not with PSD95 PDZ3 (PSD95-PDZ3 [3]) | interaction or not with Erbin PDZ (Erbin-PDZ [4]) | ΔTm of nNOS-PDZ (nNOS-PDZ) [°C] | interaction or not with nNOS PDZ (nNOS-PDZ) | also measured
EYLGLDVPV [ERBB2 C-terminal tail comprising 9 residues, literature value] |  |  |  |  |  |  |  | Kd (Erbin-PDZ [1]): ~50 µM
FRETEV [HTLV1 Tax] | 1.5 ± 0.1 | 7.8 ± 0.9 |  |  |  |  |  | Kd (PSD95-PDZ3 [3]): 3.8 ± 0.2 µM
GLDVPV (UniProt P04626 1250-1255, looked up, fragment) [ERBB2, six-residue C-terminal peptide of host receptor tyrosine kinase ERBB2, class II PDZ ligand] |  |  | ✕ | ✕ | ✕ | 2 | ✓ | binding to Erbin-PDZ by ITC (Erbin-PDZ [4]; ITC, 25 °C, 50 mM potassium phosphate pH 7.5): lack of binding
IAESSV [HTLV3 Tax] | 20 ± 3.8 | 23 ± 9 |  |  |  |  |  | Kd (PSD95-PDZ3 [3]): 43 ± 10 µM
KIATLV [AdV E4 ORF1] | 11.5 ± 0.5 |  |  |  |  |  |  | 
KKETAV |  |  |  |  |  |  |  | ΔTm of PSD95-PDZ3 (PSD95-PDZ3 [5]; DSC, PDZ:peptide 1:3): about 9 °C; Kd (PSD95-PDZ3 [5]; ITC, same concentrations as this study): 1.5 µM
LLDEIAV [CAPON, C-terminus of CAPON, cytoplasmic protein; class II peptide, cognate nNOS partner] |  |  | ✕ | ✕ | ✕ | 3 | ✓ | 
TGWETWV [Erbin PDZ binder] | 5.7 ± 0.2 | 0.24 ± 0.08 |  |  |  |  |  | ΔTm of PSD95-PDZ2 (PSD95-PDZ2 [6]): around 6 °C
VVKVDSV [MelR, C-terminal region of a melatonin receptor] |  |  | ✕ | ✕ | ✕ | 3 | ✓ | 
